# Results taken from US20240336617A1, “Substituted Bimane Compounds and Methods of Use Thereof” (THE TRUSTEES OF THE UNIVERSITY OF PENNSYLVANIA, priority 2023, published 2024).
# Assays:
# [1] = Fluorescence (emission) measurements; assay type: physicochemical; conditions: for maximum emission wavelength (λem): 50:50 ACN/PBS, excitation at λabs; for Emission λem: Table S12;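 as to all read-outs here: fluorescence emission spectra recorded on a spectrofluorometer, with each compound excited at its own absorption maximum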
# Description: The fluorescence spectrum of each derivative (150 μL) was measured on a Photon Technology International (PTI) QuantaMaster™ 40 fluorescence spectrometer by excitation at the maximum absorption wavelength for each compound.
# The fluorescence spectrum of each derivative (150 μL) was measured on a Photon Technology International (PTJ) QuantaMaster™ 40 fluorescence spectrometer by excitation at the maximum absorption wavelength for each compound.
# [2] = pH measurements (absorption and emission); assay type: physicochemical; conditions: pH 2-11
# Description: 10 mM stock solutions of 7h, 7j, and 7k in DMSO were individually diluted into ACN/PBS buffer (50:50 v/v) having different pH ranging from pH 2-11 with 25 μM (500 μL) of final concentration. For pH screening of 7h and 7j, PBS buffer solutions were prepared, then adjusted the pH 2, 4, and 7 by adding 6 M hydrochloric acid, pH 9 and 11 by adding 5 M sodium hydroxide. For pH screening of 7k, pH 4.4 and 7.4 were prepared by citric acid/phosphate buffer. Then, the absorption and fluorescence spectra were recorded by using Thermo Scientific Genesys 150 UV-Vis spectrometer, followed by PTI QuantaMaster™ 40 fluorescence spectrometer by excitation with maximum absorption wavelength.
# pH measurements. 10 mM stock solutions of 5h and 5j in DMSO were individually diluted into ACN/PBS buffer (50:50 v/v) having different pH ranging from pH 2-11 with 25 µM (500 μL) of final concentration. For pH screening of 5h and 5j, PBS buffer solutions were prepared, then adjusted the pH 2, 4, and 7 by adding 6 M hydrochloric acid, pH 9 and 11 by adding 5 M sodium hydroxide. Then, we have recorded the absorption and fluorescence spectra by using Thermo Scientific Genesys 150 UV-Vis spectrometer, followed by PTI QuantaMaster™ 40 fluorescence spectrometer by excitation with maximum absorption wavelength.
# [3] = Absorbance measurements (UV-Vis); conditions: for Absorbance Wavelength: ACN:PBS buffer (50:50 v/v); for λabs: ACN/PBS
# Description: Samples were individually diluted to the final concentration of 25 μM (500 μL) using 50:50 acetonitrile in phosphate buffered saline (ACN/PBS). The absorbance spectrum of each derivative (150 μL) was measured on a Thermo Scientific Genesys 150 UV-Vis spectrometer, using 50:50 ACN/PBS as a blank.
# [4] = Fluorescent quantum yield (QY) measurements; assay type: physicochemical; conditions: for Fluorescence QY: ACN/PBS buffer (1:1 v/v); for Fluorescence quantum yield: in ACN
# Description: For each QY measurement, the incident excitation light spectrum was collected with 1 mL of solvent. […] Using the JASCO Quantum Yield Software, the dye QY was calculated by dividing the dye fluorescence intensity by the difference in incident light intensity in the presence and absence of dye. The minimum excitation wavelength for a full excitation incident spectrum using this setup is 360 nm.
# Fluorescent quantum yield (QY) measurements. For each QY measurement, the incident excitation light spectrum was collected with 1 mL of solvent. After measuring the incident light intensity, dye (3 and 5a-5k) was added to the solvent from a concentrated stock solution to a final concentration of […] and the new spectrum (fluorescence intensity and new incident light intensity) was collected. Using the JASCO Quantum Yield Software, the dye QY was calculated by dividing the dye fluorescence intensity by the difference in incident light intensity in the presence and absence of dye. The minimum excitation wavelength for a full excitation incident spectrum using this setup is 360 nm.
# [5] = Molar absorptivity determination; assay type: physicochemical;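 also: molar absorptivity derived from UV-Vis absorbance spectra recorded for each derivative on a spectrometer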
# Description: The absorbance spectrum of each derivative (150 μL) was measured on a Thermo Scientific Genesys 150 UV-Vis spectrometer, using 50:50 ACN/PBS as a blank.
# Molar absorptivity determination. […] The absorbance spectrum of each derivative (150 μL) was measured on a Thermo Scientific Genesys 150 UV-Vis spectrometer, using 50:50 ACN/PBS as a blank.
# [6] = Solvatochromic measurements; assay type: physicochemical; conditions: organic solvents of different polarity
# Description: The remaining 850 μL solution was used to obtain fluorescence images under a handheld 365 nm UV lamp.
# Solvatochromic measurements. […] The remaining 850 μL solution was used to obtain fluorescence images under a handheld 365 nm UV lamp.
# αS fibrils [7] = target: T1, αS fibrils (Homo sapiens, UniProt P37840); test: Fluorescence spectra with αS fibrils; assay type: binding
# T1 construct: intein-His6 (C, cleaved yes); made in house; host or cells: Escherichia coli BL21
# Description: Fluorescence measurements were performed using a PTI QuantaMaster™ 40 fluorescence spectrometer. Fluorescence spectra of 10 μM probes (concentrated stock solution prepared as 10 mM in DMSO) (7b, 7c, 7d, 7e, 7f, 7g and 7h) in PBS buffer were measured by excitation at their absorbance maximum wavelength in the absence and presence of 50 μM αS fibrils (stock solution 100 μM αS fibrils in PBS buffer).
# Fluorescence spectra with αS fibrils. Fluorescence measurements were performed using a PTI QuantaMaster 40 fluorescence spectrometer. Fluorescence spectra of 10 μM probes (concentrated stock solution prepared as 10 mM in DMSO) (5b-5f and 5h) in PBS buffer were measured by excitation at their absorbance maximum wavelength in the absence and presence of 50 μM αS fibrils (stock solution 100 μM αS fibrils in PBS buffer). […] FIGS. 77A-77F show fluorescence spectra of probes (5b-5f and 5h) with and without αS fibrils. Final concentrations of probes and αS fibrils were 10 μM and 50 μM, respectively. Emission spectra collected at each dye's maximum absorption wavelength. Ex/Em slit widths: 3 nm/3 nm. […] Absorbance is shown in FIG. 78A and FIG. 78B, whereas FIG. 78C and FIG. 78D show excitation spectra of probes 5j and 5k with and without αS fibrils. Final probe and fibrils concentrations were 10 μM and 50 μM, respectively. […] Emission wavelengths were 575 nm for 5j, 580 nm for 5k. Ex/Em slit widths: 3 nm/3 nm. […] Black line indicates incident light (αS fibrils without probe) and blue line indicates sample (αS fibrils with probe). Excitation at λexc=435 nm for 5j and λexc=463 nm for 5k and spectral collection (400-800 nm). Final concentrations of the probe and αS fibrils are the 100 μM. Ex/Em slit widths: 5 nm/5 nm.
# αS fibrils [8] = target: T1, αS fibrils; test: Competition binding with ThT on αS fibrils
# [9] = Fluorescence lifetime measurements (TCSPC); assay type: physicochemical; conditions: for Fluorescence Lifetime: ACN/PBS buffer (1:1 v/v); for Lifetime: ACN/PBS buffer (50:50 v/v), excitation 340 nm
# Description: Time correlated single photon counting (TCSPC) measurements of fluorescence lifetime decays for 100 μM solutions of dyes (6, 7c, 7e, 7f, and 7g) in ACN/PBS buffer (50:50 v/v) were collected with the PTI Quantamaster™ 40 using a pulsed LED with a maximum emission at 340 nm. Fluorescence emission was collected at the indicated wavelength for each dye with 20 nm slit widths. The instrument response function (IRF) was collected under identical conditions. Data analysis was performed with FluoFit software (PicoQuant GmbH; Berlin, Germany) using an exponential decay model.
# Fluorescence lifetime measurements. Time correlated single photon counting (TCSPC) measurements of fluorescence lifetime decays for 100 μM solutions of dyes (3 and 5c-f) in ACN/PBS buffer (50:50 v/v) were collected with the PTI Quantamaster™ 40 using a pulsed LED with a maximum emission at 340 nm. Fluorescence emission was collected at the indicated wavelength for each dye with 20 nm slit widths. The instrument response function ([…]) was collected under identical conditions. Data analysis was performed with FluoFit software (PicoQuant GmbH; Berlin, Germany) using an exponential decay model. […] FIG. 64D Fluorescence spectra of 5i-5k. […] Fluorescence spectra were measured at their maximum absorption wavelength. FIGS. 66A-66K show representative QY acquisitions of 3 and 5a-f, 5h-k in ACN/PBS buffer (50:50). All had consistent excitation (360 nm) and spectral collection (350-800 nm) parameters. Final concentration of the probe is 500 μM. Black line indicates incident light and blue line indicates sample spectrum. […] All had consistent excitation (360 nm, slit width 10 nm) and spectral collection (350-800 nm) parameters. Final concentration of the probe is 500 µM. Black line indicates incident light and blue line indicates sample spectrum. FIG. 68: Effect of pH on absorption and emission of 5h and 5j. […] For pH screening of 5h and 5j, PBS buffer solutions were prepared, then adjusted the pH 2, 4, and 7 by adding 6 M hydrochloric acid, pH 9 and 11 by adding 5 M sodium hydroxide. Emission spectra were measured by the excitation wavelength 354 nm for 5h and 385 nm for 5j. […] Lifetime measurements with exponential fits shown at left and residuals after fitting shown at right.
# [10] = 25 μM in ACN/PBS buffer (1:1 v/v), pH 7.4
# [11] = ACN/PBS buffer (1:1 v/v), pH 7.4
# [12] = in ACN, at maximum absorption wavelength
"Emission λmax [1, 10] [nm]",Stokes shift ([1]; ACN/PBS buffer (1:1 v/v)) [nm],Stokes shift ([1]; in ACN) [nm],Absorbance λmax ([3]; 25 μM in ACN) [nm],"Absorbance λmax [3, 10] [nm]",Absorbance Wavelength ([3]; Table 11) [nm],Absorbance Wavelength ([3]; Table S14) [nm],Fluorescence QY [4] [%],Fluorescence quantum yield [4] [%],Fluorescence quantum yield ([4]; Table S12) [%],"Molar Absorptivity (ε) [5, 11] [M⁻¹ cm⁻¹]","Molar Absorptivity (ε) [5, 12] [M⁻¹ cm⁻¹]",solvatochromism / environmental sensitivity [6],λabs [3] [nm],Compound,maximum emission wavelength (λem) [1] [nm],Emission λmax ([1]; 25 μM in ACN) [nm],Emission λem ([1]; 25 μM in ACN) [nm],Fluorescence Lifetime [9] [ns],Lifetime ([9]; Table 4) [ns],Lifetime ([9]; Table S13) [ns],further results
506,152,144,342,354,348,354,2.3,3.1,3.1,31514,29910,,,"Cc1c(C)n2c(/C=C/c3ccc(O)cc3)c(C)c(=O)n2c1=O [Compound 7h, (E)-3-(4-hydroxystyryl)-2,5,6-trimethyl-1H,7H-pyrazolo[1,2-a]pyrazole-1,7-dione]",505,,,,,,"pH effects on absorption and emission [2]: red-shifted absorption at pH 11 with a reduced QY, but no shift in emission"
520,200,206,316,320,320,320,0.8,1.4,1.4,38995,43238,no significant solvatochromism,320,"Cc1c(C)n2c(/C=C/c3ccc(C#N)cc3)c(C)c(=O)n2c1=O [Compound 7b, (E)-4-(2-(2,5,6-trimethyl-1,7-dioxo-1H,7H-pyrazolo[1,2-a]pyrazol-3-yl)vinyl)benzonitrile]",,522,522,,,,
,,,,,385,,,,,,,,,"(E)-3-(4-(dimethylamino)styryl)-2,5,6-trimethyl-1H,7H-pyrazolo[1,2-a]pyrazole-1,7-dione [Compound 7l]",,,,,,,concentration-dependent shift in the emission maximum with αS fibrils (αS fibrils [7]): binding at limited sites with high affinity; competition with ThT on αS PFFs (αS fibrils [8]): displacement of the known amyloid-binding dye ThT
503,182,176,316,321,321,321,2.5,3.1,3.1,23959,32724,no significant solvatochromism,321,"Cc1c(C)n2c(/C=C/c3ccccc3)c(C)c(=O)n2c1=O [Compound 7e, (E)-2,3,6-trimethyl-5-styryl-1H,7H-pyrazolo[1,2-a]pyrazole-1,7-dione]",,,,1.02,1.02 ± 0.004,1.02 ± 0.004,

Compound,"Emission λmax [1, 10] [nm]",Stokes shift ([1]; ACN/PBS buffer (1:1 v/v)) [nm],Stokes shift ([1]; in ACN) [nm],Absorbance λmax ([3]; 25 μM in ACN) [nm],"Absorbance λmax [3, 10] [nm]",Absorbance Wavelength ([3]; Table 11) [nm],Absorbance Wavelength ([3]; Table S14) [nm],Fluorescence QY [4] [%],Fluorescence quantum yield [4] [%],Fluorescence quantum yield ([4]; Table S12) [%],"Molar Absorptivity (ε) [5, 11] [M⁻¹ cm⁻¹]","Molar Absorptivity (ε) [5, 12] [M⁻¹ cm⁻¹]",solvatochromism / environmental sensitivity [6],λabs [3] [nm],maximum emission wavelength (λem) [1] [nm],Emission λmax ([1]; 25 μM in ACN) [nm],Emission λem ([1]; 25 μM in ACN) [nm],Fluorescence Lifetime [9] [ns],Lifetime ([9]; Table 4) [ns],Lifetime ([9]; Table S13) [ns],further results
"COP(=O)(Cc1c(C)c(=O)n2c(=O)c(C)c(C)n12)OC [Compound 6, dimethyl ((2,5,6-trimethyl-1,7-dioxo-1H,7H-pyrazolo[1,2-a]pyrazol-3-yl)methyl)phosphonate]",464,80,57,375,384,,,64.6,77.7,77.7,7902,6121,no significant environmental sensitivity,,464,432,432,2.32,2.32 ± 0.01,2.32 ± 0.01,fluorescent lifetime ([9]; ACN/PBS): 2.32 ns; fluorescence quantum yield (QY) ([4]; in ACN/PBS): 64.6%
